Experimental data as given in paper PMC5817390 (The Pharmacogenomics Journal, 2016).
Read-outs that look alike come from different tables or passages of the source.

Experiments:
[1] = cited from earlier work
[2] = test system: P-glycoprotein (P-gp; MDR1); conditions: in vitro studies; cited from earlier work
[3] = single 60-mg dose, healthy subjects, 14 phase 1 studies; cited from earlier work
[4] = format: in vivo, human (healthy subjects); conditions: for AUC(0-inf): AUCinf
[5] = test system: organic anion transporter protein 1B1 (OATP1B1); conditions: in vitro studies; cited from earlier work
[6] = healthy volunteers; cited from earlier work
[7] = on a molar basis; ref data on file; cited from earlier work
[8] = ABCB1 rs1045642 CT, single 60-mg edoxaban, mean±s.d.
[9] = SLCO1B1 rs4149056 C-carriers, single 60-mg edoxaban, mean±s.d.
[10] = SLCO1B1 rs4149056 TT, single 60-mg edoxaban, mean±s.d.
[11] = single 60-mg edoxaban, healthy subjects
[12] = SLCO1B1 rs4149056 C-carriers vs TT homozygotes, with 90% CI
[13] = SLCO1B1 rs4149056 TT, M4 to edoxaban, adjusted for molecular weights, mean±s.d.

CN1CCc2nc(C(=O)N[C@@H]3C[C@@H](C(=O)N(C)C)CC[C@@H]3NC(=O)C(=O)Nc3ccc(Cl)cn3)sc2C1 [Edoxaban, edoxaban]
absorbed dose renally eliminated [1]: ~ 50%
absorbed drug eliminated unmodified [1]: ~73%
substrate of P-glycoprotein [2]: substrate
tolerability [3]: generally well tolerated
AUC0–24 [4, 8]: 1671 ± 420.3 ng·h/mL
AUCinf [4, 8]: 1845 ± 417.8 ng·h/mL
AUC0–24 [4, 9]: 1643.8 ± 392.9 ng·h/mL
AUCinf [4, 9]: 1815.5 ± 382.4 ng·h/mL
AUC0–24 [4, 10]: 1644.1 ± 440.6 ng·h/mL
AUCinf [4, 10]: 1823.5 ± 444.9 ng·h/mL
AUC(0-t) ([4]; both, human, in vivo, 60 mg, AUC0–24, ABCB1 rs1045642 CC, single 60-mg edoxaban, mean±s.d.): 1610 ± 441 ng·h/mL
AUC(0-t) ([4]; both, human, in vivo, 60 mg, AUC0–24, ABCB1 rs1045642 TT, single 60-mg edoxaban, mean±s.d.): 1680 ± 442 ng·h/mL
AUC(0-inf) ([4]; both, human, in vivo, 60 mg, ABCB1 rs1045642 CC, single 60-mg edoxaban, mean±s.d.): 1790 ± 450 ng·h/mL
AUC(0-inf) ([4]; both, human, in vivo, 60 mg, ABCB1 rs1045642 TT, single 60-mg edoxaban, mean±s.d.): 1860 ± 436 ng·h/mL
AUC(0-t) ([4]; both, human, in vivo, 60 mg, AUClast, ABCB1 rs1045642 CC, single 60-mg edoxaban, fasting, plasma, mean±s.d.): 1760 ± 447 ng·h/mL
AUC(0-t) ([4]; both, human, in vivo, 60 mg, AUClast, ABCB1 rs1045642 CT, single 60-mg edoxaban, fasting, plasma, mean±s.d.): 1810 ± 417 ng·h/mL
AUC(0-t) ([4]; both, human, in vivo, 60 mg, AUClast, ABCB1 rs1045642 TT, single 60-mg edoxaban, fasting, plasma, mean±s.d.): 1820 ± 435 ng·h/mL
AUC(0-t) ([4]; both, human, in vivo, 60 mg, AUClast, SLCO1B1 rs4149056 C-carriers, single 60-mg edoxaban, mean±s.d.): 1780 ± 381 ng·h/mL
AUC(0-t) ([4]; both, human, in vivo, 60 mg, AUClast, SLCO1B1 rs4149056 TT, single 60-mg edoxaban, mean±s.d.): 1790 ± 443 ng·h/mL
concentration at 24 h ([4]; both, human, in vivo, 60 mg, C24, ABCB1 rs1045642 CC, plasma concentration at 24 h postdose, single 60-mg edoxaban, mean±s.d.): 12.5 ± 5.11 ng/mL
concentration at 24 h ([4]; both, human, in vivo, 60 mg, C24, ABCB1 rs1045642 TT, plasma concentration at 24 h postdose, single 60-mg edoxaban, mean±s.d.): 12.3 ± 6.46 ng/mL
concentration at 24 h ([4]; both, human, in vivo, 60 mg, C24, SLCO1B1 rs4149056 C-carriers, 24 h postdose, single 60-mg edoxaban, mean±s.d.): 11.6 ± 4.8 ng/mL
concentration at 24 h ([4]; both, human, in vivo, 60 mg, C24, SLCO1B1 rs4149056 TT, 24 h postdose, single 60-mg edoxaban, mean±s.d.): 12.3 ± 5.4 ng/mL
Cmax ([4]; both, human, in vivo, 60 mg, Cmax, ABCB1 rs1045642 TT, single 60-mg edoxaban, mean±s.d.): 261 ± 101 ng/mL
effect of ABCB1 C3435T SNP on exposure [4, 11]: does not significantly affect
effect of SLCO1B1 T521C SNP on exposure [4, 11]: does not influence

CN1CCc2nc(C(=O)N[C@@H]3C[C@@H](C(=O)O)CC[C@@H]3NC(=O)C(=O)Nc3ccc(Cl)cn3)sc2C1 [M4]
substrate of OATP1B1 [5]: substrate
share of the total anticoagulant exposure [1]: < 10%
levels on coadministration of cyclosporine or rifampin [6]: increase
anticoagulant activity compared with edoxaban [7]: similar
geometric LS means ratio, AUCinf [4, 12]: 126.9 (90% CI, 117.4–137.1)
geometric LS means ratio, C24 [4, 12]: 114.9 (90% CI, 104.0–127.0)
geometric LS means ratio, Cmax [4, 12]: 124.1 (90% CI, 111.9–137.5)
C24 ([4]; SLCO1B1 rs4149056 C-carriers, 24 h postdose, single 60-mg edoxaban, mean±s.d.): 1.3 ± 0.74 ng/mL
AUC0–24 [4, 9]: 170.0 ± 73.0 ng·h/mL
AUCinf [4, 9]: 191.9 ± 76.4 ng·h/mL
AUClast [4, 9]: 184.6 ± 75.6 ng·h/mL
Cmax [4, 9]: 26.7 ± 13.6 ng/mL
C24 ([4]; SLCO1B1 rs4149056 TT, 24 h postdose, single 60-mg edoxaban, mean±s.d.): 1.1 ± 0.57 ng/mL
MPR AUCinf (metabolite to parent ratio) [4, 13]: 8.7±2.9
MPR AUClast (metabolite to parent ratio) [4, 13]: 8.7±2.9
MPR Cmax (metabolite to parent ratio) [4, 13]: 8.8±3.1
AUC0–24 [4, 10]: 134.7 ± 57.2 ng·h/mL
AUCinf [4, 10]: 150.2 ± 61.4 ng·h/mL
AUClast [4, 10]: 147.1 ± 60.7 ng·h/mL
Cmax [4, 10]: 21.2 ± 10.7 ng/mL
plasma M4 concentration as share of edoxaban levels ([4]; plasma, healthy subjects): < 10%
effect of SLCO1B1 T521C SNP on exposure [4, 11]: elevated among C-carriers
